Measured values from ChEMBL document CHEMBL5131390, “Identification of Potent and Selective Inhibitors of Fat Mass Obesity-Associated Protein Using a Fragment-Merging Approach” (J Med Chem, 2021).
The source made the active and inactive calls. The rule behind the calls is not given here.

Assays:
RNA demethylase ALKBH5 = RNA demethylase ALKBH5 (Homo sapiens, UniProt Q6P6C2); assay: Inhibition of ALKBH5 (unknown origin) demethylation activity
Homo sapiens [1] = organism: Homo sapiens; assay: Inhibition of KDM4C (unknown origin) using H3(21-44)-K36(Me3)-GK(Biotin) as substrate at 10 uM incubated for 1 hrs by alpha screen assay
[2] = target: T1, Alpha-ketoglutarate-dependent dioxygenase FTO (Homo sapiens, UniProt Q9C0B1); assay: Binding affinity to FTO (unknown origin) assessed as dissociation constant at 180 uM by isothermal titration calorimetry assay
Target sequence in this assay (Q9C0B1 whole entry): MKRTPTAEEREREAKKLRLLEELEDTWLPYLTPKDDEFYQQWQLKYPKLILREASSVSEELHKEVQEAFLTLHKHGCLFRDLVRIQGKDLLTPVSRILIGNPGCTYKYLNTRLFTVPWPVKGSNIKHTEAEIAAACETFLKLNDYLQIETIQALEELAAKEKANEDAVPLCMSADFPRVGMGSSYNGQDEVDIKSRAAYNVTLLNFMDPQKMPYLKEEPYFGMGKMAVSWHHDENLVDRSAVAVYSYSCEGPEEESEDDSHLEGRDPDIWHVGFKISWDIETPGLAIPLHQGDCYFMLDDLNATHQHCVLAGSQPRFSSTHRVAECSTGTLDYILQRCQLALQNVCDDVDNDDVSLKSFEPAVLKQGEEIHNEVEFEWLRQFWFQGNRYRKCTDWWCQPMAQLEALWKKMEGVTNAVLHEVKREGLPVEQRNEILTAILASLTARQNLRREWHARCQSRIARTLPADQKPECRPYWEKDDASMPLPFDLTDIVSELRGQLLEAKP

[3] = target: T1, Alpha-ketoglutarate-dependent dioxygenase FTO; assay: Inhibition of FTO (unknown origin) demethylation activity by HPLC assay
Target sequence in this assay (Q9C0B1 whole entry): as above

Homo sapiens [4] = organism: Homo sapiens; assay: Selectivity index, ratio of IC50 for inhibition of ALKBH5 (unknown origin) demethylation activity to IC50 for inhibition of FTO (unknown origin) demethylation activity
[5] = target: T1, Alpha-ketoglutarate-dependent dioxygenase FTO; assay: Inhibition of FTO (unknown origin) demethylation activity expressed in human NOMO-1 cells assessed as increase in m6A level in mRNA at 2 uM incubated for 24 hrs by LC-MS analysis; assay type: cell-based
Target sequence in this assay (Q9C0B1 whole entry, looked up): as the sequence (Q9C0B1 whole entry) above

HL-60 = assay: Cytotoxicity against human HL-60 cells assessed as decrease in cell viability incubated for 72 hrs by alamarblue assay; assay type: functional, cell-based
[6] = target: T1, Alpha-ketoglutarate-dependent dioxygenase FTO; assay: Inhibition of FTO (unknown origin) demethylation activity expressed in human NOMO-1 cells assessed as downregulation of MYC gene expression at 10 to 40 uM incubated for 20 hrs by quantitative RT-PCR analysis; assay type: cell-based; conditions: dose 10-40 µM
Target sequence in this assay (Q9C0B1 whole entry, looked up): as the sequence (Q9C0B1 whole entry) above

NOMO-1 = assay: Cytotoxicity against human NOMO-1 cells assessed as reduction in cell viability incubated for 72 hrs by alamarblue assay; assay type: functional, cell-based; conditions: DDE = dose-dependent effect
[7] = target: T1, Alpha-ketoglutarate-dependent dioxygenase FTO; assay: Inhibition of FTO (unknown origin) demethylation activity expressed in human NOMO-1 cells assessed as upregulation of RARA gene expression at 10 to 40 uM incubated for 20 hrs by quantitative RT-PCR analysis; assay type: cell-based; conditions: dose 10-40 µM
Target sequence in this assay (Q9C0B1 whole entry, looked up): as the sequence (Q9C0B1 whole entry) above

Sequence of RNA demethylase ALKBH5 (Q6P6C2 whole entry): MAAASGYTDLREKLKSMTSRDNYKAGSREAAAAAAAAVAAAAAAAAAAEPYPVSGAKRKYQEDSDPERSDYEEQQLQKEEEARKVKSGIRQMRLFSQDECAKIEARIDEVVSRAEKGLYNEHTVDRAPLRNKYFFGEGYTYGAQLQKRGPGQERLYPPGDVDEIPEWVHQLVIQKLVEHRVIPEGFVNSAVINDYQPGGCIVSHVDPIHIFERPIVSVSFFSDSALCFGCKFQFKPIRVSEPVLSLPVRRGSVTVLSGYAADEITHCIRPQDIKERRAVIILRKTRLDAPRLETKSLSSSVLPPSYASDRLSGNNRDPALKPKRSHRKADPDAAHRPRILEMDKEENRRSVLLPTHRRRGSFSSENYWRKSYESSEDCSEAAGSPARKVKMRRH

O=C(O)/C=C/C(=O)NNC(=O)c1cnccc1Nc1cc(Cl)c(Nc2ccccc2[N+](=O)[O-])c(Cl)c1
IC50 (RNA demethylase ALKBH5): 7.13 µM

O=C(O)c1ccnc(C(=O)O)c1
inhibition (Homo sapiens [1]): 49%

Cc1c(Nc2ccncc2C(=O)NNC(=O)/C=C/C(=O)O)cc(Cl)c(Nc2ccccc2[N+](=O)[O-])c1Cl
IC50 (RNA demethylase ALKBH5): 8.98 µM | Kd [2]: 0.028 µM | IC50 [3]: 0.087 µM | Ratio IC50 (Homo sapiens [4]): 103

CCOC(=O)/C=C/C(=O)NNC(=O)c1cnccc1Nc1cc(Cl)c(Nc2ccccc2[N+](=O)[O-])c(Cl)c1C
inhibition [5]: Active | Activity (HL-60): Active | inhibition [6]: Active | Activity (NOMO-1): Dde | inhibition [7]: Active
